Measurements published in patent US7728146B2, “Enzyme inhibitors” (Probiodrug AG, priority 2006, dated 2010).

Experiments:
Caco-2 transport assay = format: in vitro ADME, human; conditions: human, Caco-2, pH 7.5; for Papp A→B: apical to basal; for Papp B→A: basal to apical
Protocol: (§1) The concentration of compounds in the Caco experiments may be determined from their potency to inhibit recombinant human DP IV.
(§2) Reaction is started by addition of 20 μl rhDP IV and release of pNA was monitored at 405 nm. Samples are analyzed in several dilutions (undiluted, 1:10, 1:[…]). Dilutions are done in the Caco assay buffer. Activity measured with Caco-assay buffer alone is set to 100% and inhibitor concentration is calculated from the dilutions resulting in 20 to 80% inhibition according to the equation for competitive inhibition.
(§3) [formula] • I=inhibitor concentration • v0=velocity of the reaction without inhibitor (Caco assay buffer alone) • vi=velocity of the reaction with inhibitor sample • Ki=Ki-value of the compound • DF=dilution factor of the sample Transport Assay
(§4) The human colon adenocarcinome cell line Caco-2 are grown in 6- or 24-transwell microplates (Costar) for 21 days with MEM-alpha containing 10% FBS and 0.5% Gentamycin (Invitrogen). After 21 days of cultivation integrity of the cell layer are assessed by measurement of the transepitelial electrical resistance.
(§5) Transport measurements are carried out in triplicates at a pH of 7.5. For each compound and direction (apical to basal (a-b), basal to apical (b-a)) two separate experiments are done. Samples are collected from the donor and acceptor compartments at the beginning of the experiment and after 60 min (for 6-well plates, Donor at 0 and 120 min, Acceptor at 15, 30, 60 and 120 min).
(§6) Samples are analyzed in several dilutions for their ability to inhibit human recombinant DP IV and compound concentrations may be calculated using the prior determined Ki-value (see above).
(§7) The permeability coefficient Papp is calculated according to the following equation:
(§8) [formula] • VA=Volume of the acceptor compartment • A=Area of the transwell membrane • t=sampling time • cAt=concentration in the acceptor compartment at sampling time • CDO=concentration in the donor compartment at t=0
(§9) Papp-values>1e-5 cm/s are assessed as good permeable, value<1e-6 cm/s as not permeable. Papp-values in between as medium permeable. Compounds where no significant difference were found between a-b and b-a transport are assessed to be passive transported.

Caco-2 monolayer = assay: Caco-2 transport assay; format: in vitro ADME, human; conditions: assessment of permeability and transport type
Protocol: as §1, §2, §3, §4, §5, §6, §7, §8, §9

[1] = solubility (dosing solution in saline); format: physicochemical; conditions: compounds were dissolved in saline for dosing
Protocol: The animals were treated by a single oral dose of 3 mg/kg (5 mL/kg b.w.; treatment A) followed by a wash-out period of at least 3 days before intraarterial administration of 3 mg/kg (2 mL/kg b.w.; treatment B). The compounds were dissolved in saline to a final concentration adequate for an application of 3 mg/kg b.w.

DPII = DPII (Homo sapiens, UniProt Q9UHL4); assay: DPII assay; format: biochemical; conditions: for Selectivity DPII(IC50)/DPIV(Ki): ratio IC50 DPII / Ki DP IV; for IC50: sodium acetate buffer pH 5.5, Gly-Pro-AMC 1 mM
Protocol: (§10) Determination of IC50 values for DPII and DP9 are done similarly as described for DP IV.
For DPII instead of the HEPES buffer a 0.2 M sodium acetate buffer pH 5.5 is used. As substrate Gly-Pro-AMC is used in a final concentration of 1 mM.

DP9 = DP9 (Homo sapiens, UniProt Q86TI2); assay: DP9 assay; format: biochemical; conditions: for IC50: Gly Pro-AMC 0.25 mM; for Selectivity DP9(IC50)/DPIV(Ki): ratio IC50 DP9 / Ki DP IV
Protocol: as §10
For DP9 Gly Pro-AMC is used as substrate in a final concentration of 0.25 mM.

[2] = system: liver cell carcinoma cell line Hep-G2; assay: Cytotoxicity screening and LD50 determination on Hep-G2 (LDH, CytoTox-One); format: cell-based; conditions: for LD50 Viability HEP-G2 / LD50 cytotox HEP-G2: 8 serial dilutions, highest concentration 1 mM; for Cytotox 100 μM (%) HEPG2 / Viability 100 μM (%) HEP-G2: 24 h; for Cytotox 100 μM (%) HEPG2: LDH activity in cell culture media, lysed untreated cells = 100%; for Viability 100 μM (%) HEP-G2: LDH of lysed cells, untreated control = 100%; for Cytotox 100 μM (%) HEPG2 / Viability 100 μM (%) HEP-G2 / Observed cytotox: 100 μM; for Observed cytotox: Hep-G2, observation of the cells
How it was run: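 Hep-G2 cells (50 000/well) precultured 24 h, then compound in DMSO (final 1%) added for 24 h. Screen at 100 μM, 2 μM, 40 nM in triplicate. LDH in medium gave cytotoxicity (untreated 0%, lysed 100%); LDH of lysed cells gave viability. LD50 from 8 serial dilutions, top 1 mM.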

[3] = system: neuroblastoma cell line SY5Y; assay: LD50 determination on SY5Y (LDH); format: cell-based; conditions: 8 serial dilutions, highest concentration 1 mM
Protocol: After 24 h of cultivation in a 96 well plate (50 000 cells/well) compounds (dissolved in DMSO) are added and cytotoxicity and vitality of the cells are analysed after another 24 h of cultivation using the CytoTox-One Homogenoeous membrane toxicity assay (Promega).
For cytotoxicity the LDH activity in the cell culture media after 24 h of incubation are analysed. The untreated control is set to 0% cytotoxicity. For the 100% value LDH activity of lysed untreated cells are analysed.
For viability cell culture media are removed from the cells and all cells are lysed using the lysis buffer. LDH activity is determined and untreated control is set to 100% viability.
For determination of LD50 the liver carcinoma cell line HEP-G2 and the neuroblastoma cell line SY5Y may be used. The effect of 8 serial dilutions of the compounds (highest concentration 1 mM) is investigated as described above.

[4] = biological target: dipeptidyl peptidase (DP IV) (UniProt P27487); assay: Determination of IC50 against DP IV (hydrolysis of Gly-Pro-pNA); format: biochemical, porcine kidney or recombinant human; conditions: compounds obtained by preparative synthesis
Protocol: Determination of IC50 Against DP IV
Substances are screened for inhibition of dipeptidyl peptidase (DP IV) by their ability to inhibit the hydrolysis of the DP IV specific substrate Glycyl-Prolyl-4-Nitroanilide (Gly-Pro-pNA). All compounds are diluted in DMSO and IC50 will be determined with 11 serial dilutions (1:2) starting with an final concentration of 100 μM. The final DMSO concentration in the assay is 5% (v/v). The method was automated using a Tecan Genesis Freedom liquid handler and a Genius Pro (Tecan) microplate reader.
A stock solution of 0.102 M HEPES is prepared. Ionic strength (I=0.32) is adjusted by KCl and pH (pH 7.6) by KOH.
2.16 mM solution of Gly-Pro-pNA in deionized water is prepared.
All samples are dissolved in DMSO preparing a 10 mM stock solution.
DP IV from porcine kidney (pDP IV) or recombinant human DP IV (rhDP IV) is diluted in HEPES buffer to a final activity of approximately 40-50 μU*ml^−1. The DP IV is stored in a cooling rack (4° C.) on the liquid handler.
The assay may becarried out at room temperature using Freedom liquid handler connected with a Genios Pro microplate reader. Each sample is measured in duplicate. Each sample stock solution is prediluted with DMSO in a ratio of 1:5 in a polypropylen 96-well plate. From this predilution 10 serial (1:2) dilutions in DMSO are prepared. 13.5 μl of the 11 DMSO dilutions and DMSO alone are transferred to the measurement microplate (duplicates) and 86.5 μl water, 100 μl HEPES buffer and 50 μl substrate solution are added to each well. The enzymatic reaction is started by addition of 20 μl enzyme solution to each well, and then the microplate is immediately transferred to the microplate reader.
After short mixing (20 s) the release of 4-Nitroanilin (pNA) is monitored at 405 nm for 30 cycles (approx. 18 min).
Post assay calculations are done by the Magellan (Tecan) and Graphit Software. The linear slopes are calculated for each well and averaged for the duplicates. The residue activities are calculated in relation to a sample containing only solvent instead of inhibitor and expressed in %. Residue activities are plotted against the log of inhibitor concentrations and IC50 is calculated by an 4-parameter fitting ranging from 0 to 100%.

DP IV [5] = biological target: T1, DP IV (Homo sapiens, UniProt P27487); assay: Ki and inhibition type, DP IV; format: biochemical; conditions: compounds obtained by preparative synthesis
Protocol: Measurement of DP IV activities for Ki determination is carried out as described for IC50. For Ki determination samples were analysed in triplicates. 7 serial dilutions of the inhibitor (range calculated from the IC50 determination) in water are analyzed with 4 serial dilutions of the substrate.
Data are analysed by non-linear regression to the inhibitor equations using Graphit software. Ki-value and inhibition type are determined using the inhibitor equation (competitive, partiell competitive, non-competitive) which gives the best fitting results. […]

DP IV [6] = biological target: T1, DP IV; assay: DP IV inhibition IC50, parallel-synthesis compounds tested directly following synthesis (without purification); format: biochemical; parameters: IC50 DP4; other: tested directly following parallel synthesis, without purification; compounds of formula (Ib) from parallel synthesis, tested directly following synthesis; conditions: DP IV inhibition; compounds of formula (Ib) from parallel synthesis, tested directly following synthesis (without purification); read-out: IC50
How it was run: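 Porcine kidney or recombinant human enzyme (~40-50 μU/ml, HEPES buffer) hydrolysing Gly-Pro-pNA at room temperature, with 5% DMSO final; 11-point 1:2 dilutions from 100 μM final, in duplicate. pNA release read at 405 nm over ~18 min; slopes vs solvent control give residual activity, and IC50 comes from a 4-parameter fit.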

Sequence of DP9 (Q86TI2 whole entry, species assumed): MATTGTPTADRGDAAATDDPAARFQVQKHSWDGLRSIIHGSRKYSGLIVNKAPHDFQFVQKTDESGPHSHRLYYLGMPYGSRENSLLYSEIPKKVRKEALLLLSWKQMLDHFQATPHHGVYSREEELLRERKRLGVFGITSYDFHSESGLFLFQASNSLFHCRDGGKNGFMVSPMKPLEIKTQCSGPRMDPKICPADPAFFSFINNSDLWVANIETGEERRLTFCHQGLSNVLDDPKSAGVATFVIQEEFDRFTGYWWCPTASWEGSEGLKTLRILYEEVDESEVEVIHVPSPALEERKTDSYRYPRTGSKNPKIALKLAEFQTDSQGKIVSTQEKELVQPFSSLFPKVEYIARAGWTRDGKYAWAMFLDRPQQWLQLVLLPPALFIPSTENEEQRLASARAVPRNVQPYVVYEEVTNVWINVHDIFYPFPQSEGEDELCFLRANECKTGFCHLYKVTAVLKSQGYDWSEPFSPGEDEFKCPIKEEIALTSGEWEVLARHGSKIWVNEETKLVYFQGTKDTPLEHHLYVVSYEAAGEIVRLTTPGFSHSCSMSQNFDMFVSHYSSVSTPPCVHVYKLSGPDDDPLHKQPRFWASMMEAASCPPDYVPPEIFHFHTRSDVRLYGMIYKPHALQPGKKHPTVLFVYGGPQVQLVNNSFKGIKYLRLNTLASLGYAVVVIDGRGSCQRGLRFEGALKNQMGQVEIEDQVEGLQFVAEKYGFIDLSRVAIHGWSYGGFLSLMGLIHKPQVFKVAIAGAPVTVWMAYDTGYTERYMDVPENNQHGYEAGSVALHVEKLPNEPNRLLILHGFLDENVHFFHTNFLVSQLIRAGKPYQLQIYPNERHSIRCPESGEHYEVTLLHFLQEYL
T1 sequence (P27487 whole entry): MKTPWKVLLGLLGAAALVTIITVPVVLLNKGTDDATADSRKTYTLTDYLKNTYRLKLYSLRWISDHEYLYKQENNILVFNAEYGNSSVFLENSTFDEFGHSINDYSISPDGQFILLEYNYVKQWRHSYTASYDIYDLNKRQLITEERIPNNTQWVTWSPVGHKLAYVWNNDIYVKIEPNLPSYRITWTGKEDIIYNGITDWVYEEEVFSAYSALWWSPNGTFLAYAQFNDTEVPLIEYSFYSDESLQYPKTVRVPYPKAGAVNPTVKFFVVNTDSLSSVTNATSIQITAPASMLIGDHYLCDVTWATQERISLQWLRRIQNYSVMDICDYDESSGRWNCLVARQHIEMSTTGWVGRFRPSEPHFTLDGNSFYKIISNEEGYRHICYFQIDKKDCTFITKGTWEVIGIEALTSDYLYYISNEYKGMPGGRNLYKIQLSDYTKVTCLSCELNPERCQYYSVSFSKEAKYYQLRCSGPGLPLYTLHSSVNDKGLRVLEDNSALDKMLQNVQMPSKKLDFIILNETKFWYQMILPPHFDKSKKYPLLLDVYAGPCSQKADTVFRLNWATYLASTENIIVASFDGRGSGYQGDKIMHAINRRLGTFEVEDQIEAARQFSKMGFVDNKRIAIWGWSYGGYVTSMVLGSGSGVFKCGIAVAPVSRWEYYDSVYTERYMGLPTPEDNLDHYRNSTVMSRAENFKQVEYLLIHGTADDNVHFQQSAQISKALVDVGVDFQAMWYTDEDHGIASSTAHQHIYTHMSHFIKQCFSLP

Row | SMILES | Papp A→B (Caco-2 transport assay) [×10⁻⁶ cm/s] | Papp B→A (Caco-2 transport assay) [×10⁻⁶ cm/s] | Transport (Caco-2 monolayer) | solubility [1] | Ki (DPII) [nM] | Selectivity DPII(IC50)/DPIV(Ki) (DPII) | IC50 (DPII) [µM] | IC50 (DP9) [µM] | Selectivity DP9(IC50)/DPIV(Ki) (DP9) | LD50 Viability HEP-G2 [2] [mM] | LD50 cytotox HEP-G2 [2] [mM] | LD50 Viability SY5Y [3] [mM] | LD50 cytotox SY5Y [3] [mM] | IC50 [4] [nM] | Ki (DP IV [5]) [nM] | IC50 (DP IV [6]) [nM] | Cytotox 100 μM (%) HEPG2 [2] [%] | Viability 100 μM (%) HEP-G2 [2] [%] | Observed cytotox [2] [% spheric] | Ki (DP9) [µM]
1 | CCOc1ccccc1Cn1cnc(-c2ccc(Cl)cc2Cl)c1CN [Example 128b, (1-(2-ethoxybenzyl)-4-(2,4-dichlorophenyl)-1H-imidazol-5-yl)methanamine] | 45.1 | 15 | good, active in | low solubility | 1570 | 540 | 3.42 | 34.3 | 5,419 | 0.15 | 0.14 | 0.07 | 0.15 | 54 | 6.33 |  |  |  |  | 
2 | COc1ccccc1Cn1cnc(-c2ccc(Cl)cc2Cl)c1CN [Example 120b, C-[5-(2,4-dichloro-phenyl)-3-(2-methoxy-benzyl)-3H-imidazol-4-yl]-methylamine] | 51.2 | 52.8 | good, passive |  |  | 1,177 | 18.6 | 59.7 | 3,778 | 0.21 | 0.17 | 0.10 | 0.16 | 261 | 15.8 | 1900 | 11.6 | 108.9 | 50 | 
3 | COc1cccc(Cn2cnc(-c3ccc(Cl)cc3Cl)c2CN)c1 [Example 59b, C-[5-(2,4-dichloro-phenyl)-3-(3-methoxy-benzyl)-3H-imidazol-4-yl]-methylamine] | 49.7 | 38.3 | good, passive |  |  | 2,542 | 38.9 |  | 7,974 |  |  |  |  | 221 | 15.3 | 3700 | 1.2 | 116.3 | 10 | 
4 | NCc1c(-c2ccc(Cl)cc2Cl)ncn1Cc1ccccc1Cl [Example 81b, C-[3-(2-chloro-benzyl)-5-(2,4-dichloro-phenyl)-3H-imidazol-4-yl]-methylamine] | 41.9 | 16 | good, active in |  | 2180 | 383 | 7.46 | 38.3 | 1,964 | 0.14 | 0.12 | 0.07 | 0.16 | 139 | 19.5 | 1000 |  |  |  | 7.65
